Source: patent US8334313B2, “Ureido substituted benzoic acid compounds and their use for nonsense suppression and the treatment of disease” (PTC Therapeutics, Inc., priority 2002, dated 2012)

What follows are compounds tested on luciferase reporter construct containing a UGA premature termination codon (assay: cell-based luciferase reporter assay (nonsense suppression / readthrough)). Conditions: ranking combining potency and efficacy of protein synthesis; UGA luciferase reporter stably transfected in 293T Human Embryonic Kidney cells.
Parameters: key: *****: both extremely high potency and extremely high efficacy of protein synthesis; ****: extremely high potency of protein synthesis and very high efficacy; ****: very high potency of protein synthesis and extremely high efficacy; ***: both very high potency and very high efficacy of protein synthesis; **: very high potency of protein synthesis and significant efficacy; **: significant potency of protein synthesis and very high efficacy; *: significant potency and efficacy of protein synthesis
Method: Activity measurements in Table I were performed in a cell-based luciferase reporter assay (as described in Section 4.2) comprising a luciferase reporter construct containing a UGA premature termination codon that was stably transfected in 293T Human Embryonic Kidney cells. A small molecule (3-[3-(4-Isopropyl-phenyl)-2,5-dioxoimidazolidin-1-yl]-benzoic acid) known to allow readthrough of premature termination codons, was used as an internal standard. Activity measurements are based on the qualitative relation between the minimum concentration of compound required to produce a given protein in a cell (potency) and the maximum amount of protein produced by the cell (efficacy). Potency and efficacy activities are ranked as either extremely high, very high or significant.
The test compounds identified in the nonsense suppression assay (for convenience referred to herein as a “lead” compound) can be tested for biological activity using host cells containing or engineered to contain the target RNA element coupled to a functional readout system. For example, the lead compound can be tested in a host cell engineered to contain the RNA with the premature translation termination codon controlling the expression of a reporter gene. In this example, the lead compounds are assayed in the presence or absence of the RNA with the premature translation termination codon. Compounds that modulate premature translation termination and/or nonsense-mediated mRNA decay in vivo will result in increased expression of the full-length gene, i.e., past the premature termination codon. Alternatively, a phenotypic or physiological readout can be used to assess activity of the target RNA with the premature translation termination codon in the presence and absence of the lead compound. Both the in vitro and in vivo nonsense suppression assays used herein and as described in International Patent Publication WO 01/44516, which is incorporated by reference in its entirety, can be used to identify lead compounds can also be used to determine an EC50 for the lead compounds.
A stable cell line harboring the […] nonsense-containing luciferase gene is treated with a test compound. Cells are grown in standard medium supplemented with 1% penicillin-streptomycin (P/S) and 10% fetal bovine serum (FBS) to 70% confluency and split 1:1 the day before treatment. The next day, cells are trypsinized and 40,000 cells are added to each well of a 96-well tissue culture dish. Serial dilutions of each compound are prepared to generate a six-point dose response curve spanning 2 logs ([…]). The final concentration of the DMSO solvent remains constant at 1% in each well. Cells treated with 1% DMSO serve as the background standard, and cells treated with gentamicin serve as a positive control.
For CC(C)c1ccc(N2CC(=O)N(c3cccc(C(=O)O)c3)C2=O)cc1 [Compound 1, 3-[3-(4-isopropyl-phenyl)-2,5-dioxo-imidazolidin-1-yl]-benzoic acid], the Activity was “***”.
O=C(O)c1cccc(N2C(=O)CN(c3ccc(-c4ccccc4)cc3)C2=O)c1 [Compound 2] was tested, and the Activity was “***”.
For O=C(O)c1cccc(N2C(=O)CN(c3ccc(Oc4ccccc4)cc3)C2=O)c1 [Compound 3, 3-[2,5-dioxo-3-(4-phenoxy-phenyl)-imidazolidin-1-yl]-benzoic acid], the Activity was “**”.
For CC(C)c1ccc(N(CC(=O)[O-])C(=O)Nc2cccc(C(=O)[O-])c2)cc1.[Na+].[Na+] [Compound 4, 3-[3-carboxymethyl-3-(4-isopropyl-phenyl)-ureido]-benzoic acid disodium salt], the Activity was “***”.
O=C(O)c1cccc(N2C(=O)CN(Cc3ccccc3Cl)C2=O)c1 [Compound 5, 3-[3-(2-chloro-benzyl)-2,5-dioxo-imidazolidin-1-yl]-benzoic acid] was tested, and the Activity was “***”.
O=C(O)c1cccc(N2C(=O)CN(CC3CCCCC3)C2=O)c1 [Compound 6, 3-(3-cyclohexylmethyl-2,5-dioxo-imidazolidin-1-yl)-benzoic acid] was tested, and the Activity was “*”.
For CC(C)c1ccc(N2CCCN(c3cccc(C(=O)O)c3)S2(=O)=O)cc1 [Compound 7, 3-[6-(4-isopropyl-phenyl)-1,1-dioxo-1l6-[1,2,6]-thiadiazinan-2-yl]-benzoic acid], the Activity was “*”.
In the case of CC(C)c1ccc(NC(=O)Nc2cccc(C(=O)O)c2)cc1 [Compound 8, 3-[3-(4-isopropyl-phenyl)-ureido]-benzoic acid], the Activity is reported as “***”.
CC(C)c1ccc(N2C(=O)CN(c3cccc(C(=O)O)c3)C2=O)cc1 [Compound 9, 3-[3-(4-isopropyl-phenyl)-2,4-dioxo-imidazolidin-1-yl]-benzoic acid] was tested, and the Activity was “**”.
In the case of O=C(O)c1cccc(N2CC(=O)N(c3ccccc3F)C2=O)c1 [Compound 10, 3-[3-(2-fluoro-phenyl)-2,4-dioxo-imidazolidin-1-yl]-benzoic acid], the Activity is reported as “*”.
With COc1cccc(N2C(=O)CN(c3cccc(C(=O)O)c3)C2=O)c1 [Compound 11, 3-[3-(3-methoxy-phenyl)-2,4-dioxo-imidazolidin-1-yl]-benzoic acid] the Activity was “*”.
With O=C(O)c1cccc(N2CC(=O)N(c3ccc(Oc4ccccc4)cc3)C2=O)c1 [Compound 12, 3-[2,4-dioxo-3-(4-phenoxy-phenyl)-imidazolidin-1-yl]-benzoic acid] the Activity was “*”.
For O=C(O)c1cccc(N2C(=O)CN(CC3CCCO3)C2=O)c1 (stereo not drawn) [Compound 13, 3-[2,5-dioxo-3-(tetrahydro-furan-2-ylmeethyl)-imidazolidin-1-yl]-benzoic acid], the Activity was “*”.
In the case of COc1ccccc1CN1CC(=O)N(c2cccc(C(=O)O)c2)C1=O [Compound 14, 3-[3-(2-methoxy-benzyl)-2,5-dioxo-imidazolidin-1-yl]-benzoic acid], the Activity is reported as “*”.
CC(C)c1ccc(N2CCN(c3cccc(C(=O)O)c3)S2(=O)=O)cc1 [Compound 15, 3-[5-(4-isopropyl-phenyl)-1,1-dioxo-1l6-[1,2,5]-thiadiazolidin-2-yl]-benzoic acid] was tested, and the Activity was “**”.
O=C(O)c1cccc(N2C(=O)CN(c3ccc(Cc4ccccc4)cc3)C2=O)c1 [Compound 16, 3-[3-(4-benzyl-phenyl)-2,5-dioxo-imidazolidin-1-yl]-benzoic acid] was tested, and the Activity was “*”.
With CCOC(=O)c1ccc(N2C(=O)CN(c3cccc(C(=O)O)c3)C2=O)cc1 [Compound 17, 3-[3-(4-formyl-ethylester-phenyl)-2,4-dioxo-imidazolidin-1-yl]-benzoic acid] the Activity was “*”.
For O=C(O)c1cccc(N2C(=O)CN(c3cccc(Br)c3)C2=O)c1 [Compound 18, 3-[3-(3-bromo-phenyl)-2,5-dioxo-imidazolidin-1-yl]-benzoic acid], the Activity was “*”.
In the case of O=C(NCc1ccc(Br)cc1)Nc1cccc(C(=O)O)c1 [Compound 20, 3-[3-(4-bromo-benzyl)-ureido]-benzoic acid], the Activity is reported as “*”.
O=C(NCc1ccc(Cl)cc1Cl)Nc1cccc(C(=O)O)c1 [Compound 21, 3-[3-(2,4-dichloro-benzyl)-ureido]-benzoic acid] was tested, and the Activity was “*”.
With O=C(Nc1ccc(Br)cc1)Nc1cccc(C(=O)O)c1 [Compound 22, 3-[3-(4-bromo-phenyl)-ureido]-benzoic acid] the Activity was “*”.
With O=C(O)c1cccc(N2C(=O)CN(c3ccc(I)cc3)C2=O)c1 [Compound 23, 3-[3-(4-iodo-phenyl)-2,5-dioxo-imidazolidin-1-yl]-benzoic acid] the Activity was “***”.
O=C(O)c1cccc(N2CC(=O)N(c3cccc(Cl)c3Cl)C2=O)c1 [Compound 24, 3-[3-(2,3-dichloro-phenyl)-2,4-dioxo-imidazolidin-1yl]-benzoic acid] was tested, and the Activity was “*”.
COC(=O)c1ccc(N2CC(=O)N(c3cccc(C(=O)O)c3)C2=O)cc1 [Compound 25, 3-[3-(4-methoxycarbonylphenyl)-2,5-dioxoimidazolidin-1-yl]-benzoic acid] was tested, and the Activity was “*”.
With Cc1ccc(N2CC(=O)N(c3cccc(C(=O)O)c3)C2=O)cc1 [Compound 26, 3-(2,5-Dioxo-3-p-tolylimidazolidin-1-yl)-benzoic acid] the Activity was “*”.
CCOc1ccc(N2CC(=O)N(c3cccc(C(=O)O)c3)C2=O)cc1 [Compound 27, 3-[3-(4-Ethoxy-phenyl)-2,5-dioxo-imidazolin-1-yl]-benzoic acid] was tested, and the Activity was “*”.
With CC(C)(C)c1ccc(N2CC(=O)N(c3cccc(C(=O)O)c3)C2=O)cc1 [Compound 28, 3-[3-(4-tert-Butylphenyl)-2,5-dioxoimidazolidin-1-yl]-benzoic acid] the Activity was “**”.
In the case of O=C(O)c1cccc(N2C(=O)CN(c3ccc(Br)cc3)C2=O)c1 [Compound 29, 3-[3-(4-Bromo-phenyl)-2,5-dioxo-imidazolidin-1-yl]-benzoic acid], the Activity is reported as “*”.
With O=C(O)c1cccc(N2C(=O)CN(c3ccc(OC(F)(F)F)cc3)C2=O)c1 [Compound 30, 3-[2,5-Dioxo-3-(4-trifluoromethoxy-phenyl)-imidazolidin-1-yl]-benzoic acid] the Activity was “*”.
CC(C)(C)c1ccc(NC(=O)Nc2cccc(C(=O)O)c2)cc1 [Compound 33, 3-[3-(4-tert-Butylphenyl)-ureido]-benzoic acid] was tested, and the Activity was “**”.
For CC(C)c1ccc(N2CCN(c3cccc(C(=O)O)c3)C2=O)cc1 [Compound 34, 3-[3-(4-Isopropyl-phenyl)-2-oxo-imidazolidin-1-yl]-benzoic acid], the Activity was “*****”.
CC(C)c1ccc(-n2ccn(-c3cccc(C(=O)O)c3)c2=O)cc1 [Compound 35, 3-[3-(4-Isopropyl-phenyl)-2-oxo-2,3-dihydro-imidazol-1-yl]-benzoic acid] was tested, and the Activity was “***”.
For CC(C)c1cccc(N2CCN(c3cccc(C(=O)O)c3)C2=O)c1 [Compound 36, 3-[3-(3-Isopropyl-phenyl)-2-oxo-imidazolidin-1-yl]-benzoic acid], the Activity was “****”.
With CC(C)c1ccc(-n2ccn(-c3cccc(C(=O)O)c3)c2=S)cc1 [Compound 37, 3-[3-(4-Isopropyl-phenyl)-2-thioxo-2,3-dihydro-imidazol-1-yl]-benzoic acid] the Activity was “*”.
With O=C(O)c1cccc(N2CCN(c3ccc(OC(F)(F)F)cc3)C2=O)c1 [Compound 38, 3-[2-Oxo-3-(4-trifluoro-methoxy-phenyl)-imidazolidin-1-yl]-benzoic acid] the Activity was “*****”.
In the case of O=C(O)c1cccc(N2CCN(c3ccc(OC(F)F)cc3)C2=O)c1 [Compound 39, 3-[3-(4-Difluoromethoxy-phenyl)-2-oxo-imidazolidin-1-yl]-benzoic acid], the Activity is reported as “*****”.
In the case of CC(C)Oc1ccc(N2CCN(c3cccc(C(=O)O)c3)C2=O)cc1 [Compound 40, 3-[3-(4-Isopropoxy-phenyl)-2-oxo-imidazolidin-1-yl]-benzoic acid], the Activity is reported as “*****”.
With O=C(O)c1cccc(N2CCN(c3ccc4c(c3)OCO4)C2=O)c1 [Compound 41, 3-(3-Benzo[1,3]dioxol-5-yl-2-oxo-imidazolidin-1-yl)-benzoic acid] the Activity was “*****”.
O=C(O)c1cccc(N2CCN(c3ccc4c(c3)OCCO4)C2=O)c1 [Compound 42, 3-[3-(2,3-Dihydro-benzo[1,4]dioxin-6-yl)-2-oxo-imidazolidin-1-yl]-benzoic acid] was tested, and the Activity was “*****”.
